We go through 29 compounds from patent US20100249145A1, “Inhibitors of VEGF Receptor and HGF Receptor Signaling” (Methylgene, Inc., priority 2005, published 2010).

One assay concerns A549. Kind of assay: A549 wound healing inhibition (HGF dependent migration). Type of assay: cell-based. The following applies: Homo sapiens, Table 31, read-out: A549 wound healing inbib IC50. The text has this:
(§1) HGF has well known activity in terms of inducing scattering and migration (wound healing) (Wells et al., Cell Motil Cytoskeleton. 2005 November 62(3):180-94; Miura et al., Urology 2001 December 58(6):1064-9; Nishimura et al., Int J. Urol. 1998 May 5(3):276-81; Wang et al., Mol Cancer Ther. 2003 November; 2(11):1085-92; and Christensen et al., Cancer Res. 2003 Nov. 1; 63(21):7345-55).

The next assay has as its system DU145. Kind of assay: DU145 scattering inhibition (HGF dependent scattering). The class given is cell-based. The conditions noted are these: Homo sapiens, DU-145, Table 31, read-out: DU145 scattering inhib IC50.
Text: as §1

The next assay deals with T1, VEGF receptor KDR (Homo sapiens, UniProt P35968).
T1 construct: made in house; host or cells: Sf9 cells (Spodoptera frugiperda), recombinant baculovirus
Kind of assay: In vitro receptor tyrosine kinase assay (DELFIA), VEGF receptor KDR. Type of assay: biochemical. The conditions noted are these: Table 31; ATP 0.6 uM, enzyme 5 nM; read-out: VEGFR IC50. The text has this: In Vitro Receptor Tyrosine Kinase Assays (c-Met/HGF receptor and VEGF Receptor KDR)
In the case of VEGF receptor KDR a 1.6-kb cDNA corresponding to the catalytic domain of VEGFR2 or KDR (Genbank accession number AF035121 amino acid 806 to 1356) was cloned into the Pst I site of the pDEST20 Gateway vector (Invitrogen) for the production of a GST-tagged version of that enzyme.
The GST-VEGFR2806-1356 protein was expressed in Sf9 cells (Spodoptera frugiperda) upon infection with recombinant baculovirus construct.
The supernatant was loaded onto a GST-agarose column (Sigma) equilibrated with PBS pH 7.3. Following a four column volume (CV) wash with PBS pH 7.3+1% Triton X-100 and 4 CV wash with buffer B (50 mM Tris pH 8.0, 20% glycerol and 100 mM NaCl), bound proteins were step eluted with 5 CV of buffer B supplemented with 5 mM DTT and 15 mM glutathion. […] Final GST-VEGFR2806-1356 protein preparations concentrations were about 0.7 mg/ml with purity approximating 70%.

Assay [1] has as its target T2, recombinant human c-Met/HGF receptor (Homo sapiens, UniProt P08581).
T2 construct: His tag (histidine tag from pBlueBacHis2A); made in house; host or cells: Hi-5 cells (Trichoplusia ni), recombinant baculovirus
The assay can be described thus: In vitro receptor tyrosine kinase assay (DELFIA), c-Met/HGF receptor. The class given is biochemical. The following applies: Table 31; ATP 10 uM, enzyme 25 nM; read-out: CMet ic50.

T1 sequence (P35968 806-1356): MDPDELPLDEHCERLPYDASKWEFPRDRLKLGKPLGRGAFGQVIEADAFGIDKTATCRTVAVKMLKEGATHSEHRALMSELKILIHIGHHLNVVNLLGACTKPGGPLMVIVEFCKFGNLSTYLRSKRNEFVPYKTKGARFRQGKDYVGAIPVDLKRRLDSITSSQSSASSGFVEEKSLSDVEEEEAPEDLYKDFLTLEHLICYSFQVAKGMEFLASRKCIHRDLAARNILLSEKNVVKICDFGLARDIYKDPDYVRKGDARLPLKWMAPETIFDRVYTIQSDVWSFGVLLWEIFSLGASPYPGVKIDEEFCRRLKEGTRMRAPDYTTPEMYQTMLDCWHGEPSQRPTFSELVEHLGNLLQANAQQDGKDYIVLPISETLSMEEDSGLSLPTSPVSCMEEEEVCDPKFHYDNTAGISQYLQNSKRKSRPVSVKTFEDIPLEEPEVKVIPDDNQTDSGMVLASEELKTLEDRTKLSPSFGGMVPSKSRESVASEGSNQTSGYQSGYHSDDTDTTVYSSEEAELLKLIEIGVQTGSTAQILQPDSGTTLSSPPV
T2 sequence (P08581 1078-1337): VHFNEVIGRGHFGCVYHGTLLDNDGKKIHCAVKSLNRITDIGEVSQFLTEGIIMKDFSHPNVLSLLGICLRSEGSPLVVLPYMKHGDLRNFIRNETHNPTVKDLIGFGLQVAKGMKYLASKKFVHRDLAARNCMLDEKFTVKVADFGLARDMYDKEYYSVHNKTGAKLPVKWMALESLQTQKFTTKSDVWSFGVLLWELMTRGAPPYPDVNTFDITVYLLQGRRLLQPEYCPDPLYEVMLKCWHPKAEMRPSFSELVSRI

With `COc1ccccc1CC(=O)NC(=S)Nc1ccc(Oc2ccnc3cc(-c4cn(CC(N)=O)cn4)sc23)c(F)c1`, the IC50 is more than 10000 nM in the assay on A549, 1000 to 5000 nM in the assay with DU145, 50 to 250 nM at VEGF receptor KDR and 50 to 250 nM in assay [1].
Take `CCN(CCOC)Cc1ccc(-c2cc3nccc(Oc4ccc(NC(=S)NC(=O)Cc5ccc(F)cc5)cc4F)c3s2)cc1`: the half-maximal inhibitory concentration (IC50) with A549 is less than 1000 nM; with DU145, less than 1000 nM; on VEGF receptor KDR, less than 50 nM; in assay [1], less than 50 nM.
As for `CCNC(=O)N1CCN(Cc2ccc(-c3cc4nccc(Oc5ccc(NC(=S)NC(=O)Cc6ccccc6)cc5F)c4s3)cc2)CC1`, the IC50 was less than 1000 nM in the assay on A549, less than 1000 nM in the assay with DU145, less than 50 nM at VEGF receptor KDR and less than 50 nM in assay [1].
As for `CNC(=O)N1CCN(Cc2ccc(-c3cc4nccc(Oc5ccc(NC(=S)NC(=O)Cc6ccccc6)cc5F)c4s3)cc2)CC1`, the IC50 is less than 1000 nM with A549, less than 1000 nM in the assay with DU145, less than 50 nM on VEGF receptor KDR and less than 50 nM in assay [1].
For `C#Cc1ccc(CC(=O)NC(=S)Nc2ccc(Oc3ccnc4cc(-c5ccc(CN6CCN(C)CC6)cc5)sc34)c(F)c2)cc1`, the IC50 was more than 10000 nM with A549, 1000 to 5000 nM with DU145, less than 50 nM at VEGF receptor KDR and 50 to 250 nM in assay [1].
The matching figures for `C#Cc1ccc(CC(=O)NC(=S)Nc2ccc(Oc3ccnc4cc(-c5cn(CC)cn5)sc34)c(F)c2)cc1`: 1000 to 5000 nM, 1000 to 5000 nM, less than 50 nM and 50 to 250 nM.
The matching figures for `O=C(Cc1ccccc1)NC(=S)Nc1ccc(Nc2ccnc3ccsc23)c(F)c1`: less than 1000 nM, 1000 to 5000 nM, more than 500 nM and 50 to 250 nM.
The matching figures for `CN(c1ccc(NC(=S)NC(=O)Cc2ccccc2)cc1F)c1ccnc2cc(-c3cn(C)cn3)sc12`: less than 1000 nM, less than 1000 nM, more than 500 nM and less than 50 nM.
In the case of `CCn1cnc(-c2cc3nccc(Oc4ccc(NC(=S)NC(=O)Cc5cccc(F)c5)cc4F)c3s2)c1`, the IC50 in the assay with A549 is less than 1000 nM; in the assay on DU145 it was less than 1000 nM; on VEGF receptor KDR it was less than 50 nM; in assay [1], less than 50 nM.
In the case of `CCn1cnc(-c2cc3nccc(Oc4ccc(NC(=S)NC(=O)Cc5ccccc5C)cc4F)c3s2)c1` [drawing 441], the IC50 with A549 was less than 1000 nM; in the assay on DU145 it was less than 1000 nM; at VEGF receptor KDR it was less than 50 nM; in assay [1], less than 50 nM.
Regarding `CN1CCN(Cc2ccc(-c3cc4nccc(Oc5ccc(NC(=S)NC(=O)Cc6ccccc6)cc5F)c4s3)cc2)CC1`, the IC50 in the assay on A549 is less than 1000 nM; in the assay with DU145 it was less than 1000 nM; at VEGF receptor KDR, less than 50 nM; in assay [1] it was less than 50 nM.
As to `CCn1cc(-c2cc3nccc(Oc4ccc(NC(=S)NC(=O)Cc5ccccc5)cc4F)c3s2)nn1`, the IC50 in the assay on A549 is less than 1000 nM; with DU145 it was less than 1000 nM; on VEGF receptor KDR it was 250 to 500 nM; in assay [1], less than 50 nM.
Regarding `CN1CC=C(c2cc3nccc(Oc4ccc(NC(=S)NC(=O)Cc5ccc(F)cc5)cc4F)c3s2)CC1`, the IC50 in the assay on A549 is less than 1000 nM; in the assay with DU145, less than 1000 nM; on VEGF receptor KDR, 250 to 500 nM; in assay [1] it was less than 50 nM.
On to `Cn1ccnc1-c1cc2nccc(Oc3ccc(NC(=S)NC(=O)Cc4ccc(F)cc4F)cc3F)c2s1`, for which the IC50 in the assay with A549 is less than 1000 nM; in the assay on DU145, less than 1000 nM; on VEGF receptor KDR, less than 50 nM; in assay [1] it was less than 50 nM.
With `CCn1ccnc1-c1cc2nccc(Oc3ccc(NC(=S)NC(=O)Cc4ccc(F)cc4)cc3F)c2s1`, the IC50 in the assay on A549 was less than 1000 nM; in the assay with DU145, less than 1000 nM; on VEGF receptor KDR, less than 50 nM; in assay [1] it was less than 50 nM.
As to `C#Cc1ccc(F)c(CC(=O)NC(=S)Nc2ccc(Oc3ccnc4cc(-c5cn(C)cn5)sc34)c(F)c2)c1`, the IC50 is 1000 to 5000 nM in the assay on A549, 1000 to 5000 nM with DU145, less than 50 nM on VEGF receptor KDR and less than 50 nM in assay [1].
Turning to `Cn1cnc(-c2cc3nccc(Oc4ccc(NC(=S)NC(=O)Cc5cccc(F)c5)cc4F)c3s2)c1`, the IC50 in the assay with A549 was less than 1000 nM; in the assay with DU145 it was less than 1000 nM; at VEGF receptor KDR, 50 to 250 nM; in assay [1] it was less than 50 nM.
With `C#Cc1cc(F)ccc1CC(=O)NC(=S)Nc1ccc(Oc2ccnc3cc(-c4nccn4C)sc23)c(F)c1`, the IC50 with A549 was less than 1000 nM; with DU145, less than 1000 nM; on VEGF receptor KDR, less than 50 nM; in assay [1], less than 50 nM.
For the compound `CN(c1ccc(NC(=S)NC(=O)Cc2ccccc2)cc1F)c1ccnc2ccsc12`, the IC50 with A549 is 5000 to 10000 nM; in the assay on DU145, 5000 to 10000 nM; on VEGF receptor KDR, more than 500 nM; in assay [1], 250 to 500 nM.
In the case of `CS(=O)(=O)c1ccc(-c2cc3nccc(Oc4ccc(NC(=S)NC(=O)Cc5ccc(F)cc5)cc4F)c3s2)cc1`, the IC50 was less than 1000 nM with A549, less than 1000 nM in the assay on DU145, 50 to 250 nM on VEGF receptor KDR and less than 50 nM in assay [1].
`Cn1ccnc1-c1cc2nccc(Sc3ccc(NC(=S)NC(=O)Cc4ccccc4)cc3)c2s1`: the IC50 is less than 1000 nM with A549, less than 1000 nM in the assay with DU145, more than 500 nM at VEGF receptor KDR and less than 50 nM in assay [1].
For the compound `C#Cc1ccc(CC(=O)NC(=S)Nc2ccc(Oc3ccnc4cc(-c5cn(CCN6CCCC6)cn5)sc34)c(F)c2)cc1`, the IC50 is more than 10000 nM with A549, more than 10000 nM with DU145, less than 50 nM at VEGF receptor KDR and 50 to 250 nM in assay [1].
Turning to `CN1CCN(Cc2ccc(-c3cc4nccc(Oc5ccc(NC(=S)NC(=O)Cc6ccc(F)cc6)cc5F)c4s3)cc2)CC1`, the IC50 with A549 was less than 1000 nM; in the assay with DU145 it was less than 1000 nM; at VEGF receptor KDR, less than 50 nM; in assay [1], less than 50 nM.
`O=C(Cc1ccccc1)NC(=S)Nc1ccc(Oc2ccnc3cc(-c4ccc(CN5CCNCC5)cc4)sc23)c(F)c1`: the IC50 was 1000 to 5000 nM in the assay on A549, less than 1000 nM with DU145, less than 50 nM on VEGF receptor KDR and less than 50 nM in assay [1].
Take `C#Cc1cc(F)ccc1CC(=O)NC(=S)Nc1ccc(Oc2ccnc3cc(-c4cccc[n+]4[O-])sc23)c(F)c1`: the IC50 in the assay with A549 was less than 1000 nM; with DU145, less than 1000 nM; on VEGF receptor KDR, less than 50 nM; in assay [1], less than 50 nM.
For the compound `COCCNCc1ccc(-c2cc3nccc(Oc4ccc(NC(=O)NC(=O)Cc5ccc(F)cc5)cc4F)c3s2)cc1`, the IC50 was less than 1000 nM with A549, less than 1000 nM in the assay on DU145, 50 to 250 nM at VEGF receptor KDR and less than 50 nM in assay [1].
Take `CCn1cnc(-c2cc3nccc(Oc4ccc(NC(=S)NC(=O)Cc5ccccc5O)cc4F)c3s2)c1`: the IC50 is 1000 to 5000 nM in the assay on A549, 1000 to 5000 nM with DU145, less than 50 nM on VEGF receptor KDR and less than 50 nM in assay [1].
Regarding `CN(c1ccc(NC(=S)NC(=O)Cc2ccccc2)cc1F)c1ccnc2cc(-c3nccn3C)sc12`, the IC50 was less than 1000 nM in the assay with A549, less than 1000 nM in the assay with DU145, more than 500 nM on VEGF receptor KDR and less than 50 nM in assay [1].
As for `CO/N=C(\C)c1cc2nccc(Oc3ccc(NC(=S)NC(=O)Cc4ccccc4)cc3F)c2s1`, the IC50 is 1000 to 5000 nM in the assay with A549, 1000 to 5000 nM in the assay on DU145, 50 to 250 nM at VEGF receptor KDR and less than 50 nM in assay [1].

Usually IC50 stands for the concentration that inhibits the measured activity by half.
